Results: patent publication US9675591B2, “Methods for treating seizure disorders and pain” (THE REGENTS OF THE UNIVERSITY OF CALIFORNIA, priority 2013, dated 2017)
“And” between values parts separate entries of the source, which are not always exact repeats. Equal entries are not always repeated. Where two headings read alike, the source gives them in different places.

How the values were obtained:
rats = test: Acute toxicity, neurological status of rats (positional sense, muscle tone, gait and stance); assay type: in vivo
Procedure: (§1) Abnormal neurological status in rats was evaluated by the positional sense test, the muscle tone test, and the gait and stance test. Inability of the rat to perform normally in at least two of these tests is taken as an indication of some neurological deficit.

[1] = as above; assay type: in vivo; conditions: Sprague-Dawley, rat, in vivo, rats
Procedure: as §1

MES-induced seizures = test: Maximal electroshock (MES) seizure test, rats (ASP, methylcellulose suspension); assay type: in vivo; conditions: for ED50: Rattus norvegicus, read-out: ED50, seizure protection in the MES test
Procedure: SKA-19 was tested under the auspices of the National Institutes of Health's Anticonvulsant Screening Program (ASP). Experiments were performed in male albino CF (Carworth Farms) No. 1 mice or Sprague-Dawley rats according to the established protocols of the ASP (White et al., 2002). SKA-19 was suspended in 0.5% methylcellulose and administered in a volume that permits accuracy of dosage without excessively contributing to total body fluid (0.01 ml/g body weight for mice and 0.04 ml/10 g body weight for rats).
Animals received an electrical stimulus of 0.2 s duration (50 mA in mice and 150 mA in rat at 60 Hz) delivered via corneal electrodes primed with an electrolyte solution containing 0.5% tetracaine. Animals were restrained by hand and released immediately after stimulation to permit observation of the seizure throughout its entire course. In the initial screens to identify anticonvulsant activity mice were tested at 30 minutes and 4 hours following doses of 3, 10, 30, 100 and 300 mg/kg of SKA-19 and rats tested at time intervals between 0.25 and 4 hours following a standard oral dose of 30 mg/kg. In the subsequent, more quantitative tests at least four doses of SKA-19 (n=8 per dose) were tested at the previously determined time of peak effect (TPE). Abolition of hindlimb tonic extension indicates the test compound's ability to inhibit MES-induced seizure spread. Tonic extension is considered abolished if the hind limbs are not fully extended at 180° with the body.

[2] = Acute toxicity, rotorod test in mice; assay type: in vivo; conditions: mouse, in vivo, ip, mice, i.p., suspension, read-out: TD50, ability of mice to stay on the rotorod
Procedure: (§2) Abnormal neurological status in mice following SKA-19 administration was evaluated with the rotorod test. When a normal mouse is placed on a rod 1 inch in diameter that rotates at a speed of 6 rpm, the mouse can maintain equilibrium for a long time. Inability of the mouse to stay on the rotating rod in three trials for 1 min is taken as an indication of motor impairment. […] Mice were placed on a horizontally oriented grid (consisting of parallel 1.5-mm diameter rods situated 1 cm apart), and the grid was inverted. Animals that fell from the grid within 10 s were scored as impaired.

mice = test: Acute toxicity, rotorod test in mice; assay type: in vivo
Procedure: as §2

6 Hz seizures = test: 6 Hz seizure test, compounds given i.p. as solution; assay type: in vivo; conditions: Mus musculus, ip, 10 min, mice, values stated uncertain
Procedure: The mouse maximal electroshock (MES) and 6 Hz seizure models were used. Motor toxicity was assessed using a modification of the horizontal screen test. ED50 values in the seizure models and TD50 values in the toxicity test were determined by nonlinear fitting of dose-response curves. […] Drugs solutions were injected intraperitoneally 10 min prior to administration of the electrical stimulus in a volume of 10 ml/kg body weight.

KCa2.2 (SK2) = KCa2.2 (SK2) (Rattus norvegicus, UniProt P70604); test: Whole-cell patch-clamp, KCa2.2; assay type: cell-based, human; conditions: 250 nM free intracellular Ca2+
Procedure: HEK-293 or COS-7 cells stably expressing hKCa2.1, rKCa2.2, and hKCa2.3 have been described previously (Sankaranarayanan et al., 2009). Cells were held at −80 mV and KCa currents elicited by dialysis with a K^+ aspartate based internal containing 250 nM free Ca^2+ (pH 7.2, 290 mOsm, pipette resistance 1.5 MΩ). To reduce currents from native chloride channels, Na^+ aspartate Ringer was used as an external solution. KCa2 currents were recorded with 200-ms voltage ramps from −120 to +40 mV applied every 10 s, and the fold increase of slope conductance at −80 mV by drug was taken as a measure of channel activation. Data analysis, fitting, and plotting were performed with IGOR-Pro (Wavemetrics, Lake Oswego, Oreg., USA) and Origin 9.0 (OriginLab, Northampton, Mass., USA).

Nav1.5 = Nav1.5 (Homo sapiens (Human), UniProt Q14524); test: Voltage-clamp, Nav1.5 in HEK-293 cells; assay type: cell-based
Procedure: All experiments were conducted at room temperature (22-24° C.) with an EPC-10 amplifier and Pulse software (HEKA, Lambrecht/Pfalz, Germany) in the whole-cell mode of the patch-clamp technique. Human embryonic kidney (HEK)-293 cell lines stably expressing hNav1.1, hNav1.5, hNav1.7 channels (generously provided by Dr. Christopher Lossin, University of California Davis), hNav1.4 (Frank Lehmann-Horn, University of Ulm), or hKv2.1 channels (James Trimmer, University of California Davis) were bathed in extracellular solution containing (in mM): 160 NaCl; 4.5 KCl; 1 MgCl2; 2 CaCl2; 10 HEPES [pH was adjusted to 7.4 using NaOH (310 mOsm)]. Pipettes were filled with intracellular solution containing (in mM): 145 KF; 2 MgCl2; 10 ethylene glycol tetraacetic acid; 10 HEPES (pH adjusted to 7.2 with KOH; 300 mOsm). Neuroblastoma N1E-115 cells (ATCC, Manassa, Va., USA) expressing Nav1.2 were patched with a CsF internal solution consisting of (in mM): 10 NaF; 110 CsF; 20 CsCl; 2 ethylene glycol tetraacetic acid; 10 HEPES (CsOH to pH 7.35; 300 mOsm). All pipette tip resistances were 2-4 MΩ. Series resistances of 3-10 MΩ were compensated 40-80%. All cells were voltage-clamped to a holding potential of −90 mV unless otherwise specified. The sampling frequency was 5 kHz. Na^+ currents were elicited by 30-ms pulse to 0 mV from −90 mV applied every 10 s. […]

[3] = ASP toxicity studies (species not stated); assay type: in vivo; conditions: 200 mg/kg
Nav1.3 = Nav1.3 (Homo sapiens (Human), UniProt Q9NY46); test: Voltage-clamp, Nav1.3; assay type: cell-based; conditions: read-out: EC50 or IC50, Nav1.3
Nav1.3, sequence (Q9NY46 whole entry): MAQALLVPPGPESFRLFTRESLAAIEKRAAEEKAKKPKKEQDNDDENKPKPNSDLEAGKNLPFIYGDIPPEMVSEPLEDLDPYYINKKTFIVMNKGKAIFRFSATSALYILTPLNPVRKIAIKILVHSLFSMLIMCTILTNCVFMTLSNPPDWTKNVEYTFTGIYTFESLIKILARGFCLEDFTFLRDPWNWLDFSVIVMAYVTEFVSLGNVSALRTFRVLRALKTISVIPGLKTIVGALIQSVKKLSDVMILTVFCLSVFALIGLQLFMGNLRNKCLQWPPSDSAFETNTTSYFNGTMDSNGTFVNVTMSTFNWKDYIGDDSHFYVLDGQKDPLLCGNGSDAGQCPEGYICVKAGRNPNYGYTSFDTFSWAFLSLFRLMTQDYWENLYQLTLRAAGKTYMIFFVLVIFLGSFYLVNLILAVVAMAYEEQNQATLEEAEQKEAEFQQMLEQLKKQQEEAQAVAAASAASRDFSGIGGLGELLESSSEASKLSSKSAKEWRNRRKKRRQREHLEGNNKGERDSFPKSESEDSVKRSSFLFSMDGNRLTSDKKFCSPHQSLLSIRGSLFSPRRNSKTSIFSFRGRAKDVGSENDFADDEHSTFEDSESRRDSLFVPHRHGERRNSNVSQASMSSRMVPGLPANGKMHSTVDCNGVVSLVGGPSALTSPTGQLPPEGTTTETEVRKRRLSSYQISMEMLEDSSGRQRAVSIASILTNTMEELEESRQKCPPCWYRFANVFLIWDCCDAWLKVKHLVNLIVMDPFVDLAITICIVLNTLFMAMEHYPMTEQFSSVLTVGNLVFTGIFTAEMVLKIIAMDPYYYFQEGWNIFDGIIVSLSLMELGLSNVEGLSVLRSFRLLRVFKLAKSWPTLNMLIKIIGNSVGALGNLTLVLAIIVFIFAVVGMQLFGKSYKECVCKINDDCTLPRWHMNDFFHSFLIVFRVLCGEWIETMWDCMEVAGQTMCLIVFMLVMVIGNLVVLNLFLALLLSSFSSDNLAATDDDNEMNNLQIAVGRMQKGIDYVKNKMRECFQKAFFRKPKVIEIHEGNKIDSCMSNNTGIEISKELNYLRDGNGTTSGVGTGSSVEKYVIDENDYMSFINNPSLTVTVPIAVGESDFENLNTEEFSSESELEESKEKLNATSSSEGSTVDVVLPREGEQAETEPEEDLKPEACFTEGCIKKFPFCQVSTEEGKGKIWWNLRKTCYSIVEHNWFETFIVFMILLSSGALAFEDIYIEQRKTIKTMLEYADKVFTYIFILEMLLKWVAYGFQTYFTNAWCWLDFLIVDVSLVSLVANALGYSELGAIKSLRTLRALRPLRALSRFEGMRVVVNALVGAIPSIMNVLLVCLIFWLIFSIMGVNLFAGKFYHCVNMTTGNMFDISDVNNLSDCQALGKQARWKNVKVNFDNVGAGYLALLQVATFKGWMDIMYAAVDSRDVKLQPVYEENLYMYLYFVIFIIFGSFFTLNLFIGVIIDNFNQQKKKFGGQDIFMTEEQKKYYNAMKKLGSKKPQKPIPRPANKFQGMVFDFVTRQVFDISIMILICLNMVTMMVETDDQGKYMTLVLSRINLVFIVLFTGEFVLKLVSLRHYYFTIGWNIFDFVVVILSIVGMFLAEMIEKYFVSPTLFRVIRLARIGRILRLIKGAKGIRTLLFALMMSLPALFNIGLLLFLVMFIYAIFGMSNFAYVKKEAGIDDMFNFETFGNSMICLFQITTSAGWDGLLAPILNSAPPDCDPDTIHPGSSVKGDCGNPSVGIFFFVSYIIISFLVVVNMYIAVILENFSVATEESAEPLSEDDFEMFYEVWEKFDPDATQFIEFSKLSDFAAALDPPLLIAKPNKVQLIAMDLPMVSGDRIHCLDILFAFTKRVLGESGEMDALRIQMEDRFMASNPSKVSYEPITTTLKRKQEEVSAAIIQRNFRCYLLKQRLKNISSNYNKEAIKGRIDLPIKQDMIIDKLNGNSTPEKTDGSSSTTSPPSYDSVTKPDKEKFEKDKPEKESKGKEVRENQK

Nav1.5, sequence (Q14524 whole entry): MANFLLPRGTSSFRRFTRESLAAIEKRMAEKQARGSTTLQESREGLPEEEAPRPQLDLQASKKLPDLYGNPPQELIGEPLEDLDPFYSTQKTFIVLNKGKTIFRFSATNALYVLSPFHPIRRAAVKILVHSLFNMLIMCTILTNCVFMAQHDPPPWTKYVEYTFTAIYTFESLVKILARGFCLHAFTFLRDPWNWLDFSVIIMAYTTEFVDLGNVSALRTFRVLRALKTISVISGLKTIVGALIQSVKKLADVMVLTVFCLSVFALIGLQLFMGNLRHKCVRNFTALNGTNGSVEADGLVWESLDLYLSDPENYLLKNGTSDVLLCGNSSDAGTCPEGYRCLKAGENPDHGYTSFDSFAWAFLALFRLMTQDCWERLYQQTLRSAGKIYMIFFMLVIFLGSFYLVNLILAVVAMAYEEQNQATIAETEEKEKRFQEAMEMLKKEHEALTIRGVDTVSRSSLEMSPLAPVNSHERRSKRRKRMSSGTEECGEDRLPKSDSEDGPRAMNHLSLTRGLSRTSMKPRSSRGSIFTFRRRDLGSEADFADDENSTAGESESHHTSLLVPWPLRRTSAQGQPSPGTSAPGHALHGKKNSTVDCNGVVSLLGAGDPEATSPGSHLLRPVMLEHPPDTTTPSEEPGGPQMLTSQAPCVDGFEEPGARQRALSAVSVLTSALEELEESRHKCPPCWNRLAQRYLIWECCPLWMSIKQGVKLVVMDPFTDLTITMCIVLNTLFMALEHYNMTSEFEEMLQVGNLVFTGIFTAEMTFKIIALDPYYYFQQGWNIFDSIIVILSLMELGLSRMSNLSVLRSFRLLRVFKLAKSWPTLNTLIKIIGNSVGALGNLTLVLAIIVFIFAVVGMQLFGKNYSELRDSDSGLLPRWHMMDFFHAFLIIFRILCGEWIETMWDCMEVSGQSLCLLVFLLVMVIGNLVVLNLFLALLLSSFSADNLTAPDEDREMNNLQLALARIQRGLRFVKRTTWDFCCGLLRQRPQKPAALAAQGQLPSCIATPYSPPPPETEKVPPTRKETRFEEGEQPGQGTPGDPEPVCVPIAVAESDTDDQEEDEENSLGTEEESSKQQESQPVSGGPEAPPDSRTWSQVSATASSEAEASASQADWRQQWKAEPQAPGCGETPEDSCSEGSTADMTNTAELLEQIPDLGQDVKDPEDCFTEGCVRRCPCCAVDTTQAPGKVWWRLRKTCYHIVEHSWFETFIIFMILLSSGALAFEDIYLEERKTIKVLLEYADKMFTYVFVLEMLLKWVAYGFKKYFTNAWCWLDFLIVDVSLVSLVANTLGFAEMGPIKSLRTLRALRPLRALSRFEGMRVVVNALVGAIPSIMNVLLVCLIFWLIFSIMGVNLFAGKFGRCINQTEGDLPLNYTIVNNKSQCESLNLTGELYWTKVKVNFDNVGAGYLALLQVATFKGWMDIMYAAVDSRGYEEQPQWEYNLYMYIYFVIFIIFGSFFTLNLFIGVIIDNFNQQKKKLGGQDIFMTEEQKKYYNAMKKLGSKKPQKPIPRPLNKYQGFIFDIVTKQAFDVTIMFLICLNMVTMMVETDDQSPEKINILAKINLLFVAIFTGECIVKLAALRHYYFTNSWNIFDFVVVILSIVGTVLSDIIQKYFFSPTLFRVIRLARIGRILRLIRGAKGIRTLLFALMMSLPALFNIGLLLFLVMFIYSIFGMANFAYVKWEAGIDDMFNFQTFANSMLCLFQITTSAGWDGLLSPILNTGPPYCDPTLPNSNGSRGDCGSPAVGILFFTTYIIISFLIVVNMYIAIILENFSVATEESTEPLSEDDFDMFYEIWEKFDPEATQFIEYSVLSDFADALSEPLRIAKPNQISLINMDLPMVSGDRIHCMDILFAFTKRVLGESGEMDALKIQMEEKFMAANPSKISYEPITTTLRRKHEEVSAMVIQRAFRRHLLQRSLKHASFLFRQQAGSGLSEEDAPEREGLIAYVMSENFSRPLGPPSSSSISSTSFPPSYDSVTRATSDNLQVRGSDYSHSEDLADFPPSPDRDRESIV

## Nc1nc2ccc(SC(F)(F)F)cc2s1 [SKA-19, 6-((trifluoromethyl)thio)benzo[d]thiazol-2-amine]
rats; rat, in vivo
  deaths: No deaths
rats; rats, oral 30 mg/kg, 0.25-4 h
  neurotoxicity: without inducing neurotoxicity
[1]; ip
  TD50: 14.3 mg/kg
  TD50 at 1 h: 14.3 mg/kg
[1]; oral
  TD50 at 4 h: 77.4 mg/kg
MES-induced seizures; ip, 1 h time point
  ED50: 1.6 mg/kg
MES-induced seizures; oral (SKA-19: 4 h time point)
  ED50: 2.33 mg/kg
MES-induced seizures; i.p.
  protective index PI (TD50/ED50): 8.9
MES-induced seizures; oral
  protective index PI (TD50/ED50): ~33 and 33.2
MES-induced seizures; oral 30 mg/kg, 0.25, 0.5, 1, 2 and 4 h
  protection from MES induced seizures, initial screen: fully protected
[2]; CF No. 1 (Carworth Farms)
  TD50: 29.8 mg/kg
[2]; albino CF No. 1 (Carworth Farms)
  TD50 at 2 h: 29.8 mg/kg
[2]
  TD50: 29.7 mg/kg
mice; 100 mg/kg
  neurological deficit, rotorod: inability to clasp the rotorod
mice; 100 mg/kg i.p.
  mice that died: two out of 8
mice; 300 mg/kg
  neurological deficit / lethality: sedation or death
mice; 0.5 and 4 hours after 3, 10 and 30 mg/kg
  ability of mice to stay on the rotorod: no impairment
6 Hz seizures
  ED50: 22.5 mg/kg
KCa2.2 (SK2); read-out: EC50 or IC50, KCa2.2
  EC50: 14 µM
KCa2.2 (SK2); stated for KCa2 currents
  maximal increase of KCa2 currents: 30 fold
Nav1.5
  block of Nav1.5: low micromolar range
Nav1.5; read-out: EC50 or IC50, Nav1.5
  IC50: 5.8 ± 2.6 µM
[3]
  duration of sedation and neurological impairment: up to 24 h
Nav1.3
  IC50: 2.2 ± 1.1 µM
